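The compound was tested at five concentrations on cells cultured in 96-well plates, with a 48-hour exposure period. At the GI50, growth is halved. TGI is the concentration that stops growth completely.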
Key:
Assay in all cases: NCI anticancer screen, dose series, 48 h
[1] = test system: TK-10 renal
[2] = test system: SF-539 CNS
[3] = test system: A498 renal
[4] = test system: M14 melanoma
[5] = test system: DU-145 prostate
[6] = test system: IGROV1 ovarian
[7] = test system: NCI-H522 lung
[8] = test system: CCRF-CEM leukemia

SMILES	TGI [1]	TGI [2]	TGI [3]	TGI [4]	TGI [5]	TGI [6]	TGI [7]	TGI [8]	GI50 [1]	GI50 [2]	GI50 [3]	GI50 [4]	GI50 [5]	GI50 [6]	GI50 [7]	GI50 [8]
CCOC(=N)n1c(=O)n(C2=NCCN2)c2ccccc21	> 100 µM	> 100 µM	> 100 µM	> 100 µM	> 100 µM	> 100 µM	> 100 µM	> 100 µM	–	–	–	–	–	–	–	–
C=CC[C@]12C[C@@H](C(=O)OC)N(C(=O)OC)[C@H]1N(S(=O)(=O)c1ccccc1)c1ccccc12	> 100 µM	> 100 µM	> 100 µM	–	> 100 µM	> 100 µM	> 100 µM	> 100 µM	–	–	–	–	–	–	–	–
COC(=O)c1c2c(cc3c1CC1(C3)Cc3cc4c(c(C(=O)OC)c3C1)CCCC4)CCCC2	> 100 µM	> 100 µM	> 100 µM	> 100 µM	–	> 100 µM	> 100 µM	96 µM	–	–	–	–	–	–	–	–
Nc1c(-c2cccc3ccccc23)c2ccc([N+](=O)[O-])cc2c(=O)n1-c1nc2ccccc2s1	> 100 µM	14.8 µM	> 100 µM	> 38.9 µM	> 100 µM	> 100 µM	6.86 µM	> 100 µM	–	–	–	–	–	–	–	–
c1ccc2sc(SCSc3nc4ccccc4s3)nc2c1	> 100 µM	–	> 100 µM	> 100 µM	> 100 µM	> 100 µM	> 100 µM	> 100 µM	–	–	–	–	–	–	–	–
Clc1ccc(-c2nn3c(-c4ccncc4)nnc3s2)cc1	> 100 µM	> 100 µM	–	> 100 µM	> 100 µM	> 100 µM	> 100 µM	> 100 µM	–	–	–	–	–	–	–	–
N#C/C(=C\c1cc(Br)c(O)c(Br)c1)c1cccnc1	87.2 µM	71.5 µM	–	> 100 µM	> 100 µM	> 100 µM	> 100 µM	> 100 µM	–	–	–	–	–	–	–	–
O=C(N=Nc1cc(Cl)ccc1Cl)NNc1cc(Cl)ccc1Cl	–	–	82.3 µM	32.5 µM	> 100 µM	57.3 µM	29.9 µM	49.8 µM	–	–	–	–	–	–	–	–
Oc1ccccc1/C=N/c1nc2cc3sc(/N=C/c4ccccc4O)nc3cc2s1	> 100 µM	> 100 µM	> 100 µM	> 100 µM	> 100 µM	> 100 µM	> 100 µM	> 100 µM	–	–	–	–	–	–	–	–
CN(C)c1nc(=NCc2ccccc2)ss1	> 10 µM	> 10 µM	> 10 µM	> 10 µM	> 10 µM	> 10 µM	> 10 µM	4.66 µM	–	–	–	–	–	–	–	–
CC(C)/C(Cl)=N\OC(=O)Nc1ccc(C#N)cc1	12.9 µM	29.4 µM	27.7 µM	7.85 µM	32.2 µM	32.7 µM	3.21 µM	6.85 µM	–	–	–	–	–	–	–	–
COc1ccc2cc3c4cc5c(cc4cc[n+]3cc2c1OC)OCO5	83.2 µM	> 58.5 µM	> 100 µM	68 µM	> 100 µM	> 32.7 µM	21.5 µM	35.5 µM	–	–	–	–	–	–	–	–
C(=N\NC1=NCCCN1)/c1ccc2ccccc2c1	36.8 µM	31.1 µM	20.8 µM	22.1 µM	24.2 µM	32.1 µM	32.4 µM	43.8 µM	–	–	–	–	–	–	–	–
CC1(C)N=C(C(N)=O)c2ncn(CCCO)c2N1	> 100 µM	> 100 µM	> 100 µM	> 100 µM	> 100 µM	> 100 µM	> 100 µM	> 100 µM	–	–	–	–	–	–	–	–
CC12CC(=O)C3C(C(=O)C1)C32C (centres undefined)	> 100 µM	> 100 µM	> 100 µM	> 100 µM	> 100 µM	> 100 µM	> 100 µM	> 100 µM	–	–	–	–	–	–	–	–
O=c1c2ccccc2nc2[nH][nH]c(=S)n12	> 100 µM	> 100 µM	> 100 µM	> 100 µM	> 100 µM	> 100 µM	–	> 100 µM	–	–	–	–	–	–	–	–
O=C(CNc1ccccc1Cl)Nn1c(-c2ccccc2)nc2ccccc2c1=O	> 100 µM	43.6 µM	> 100 µM	> 10 µM	> 100 µM	75.4 µM	> 10 µM	70.5 µM	–	–	–	–	–	–	–	–
CC1CC[C@@]2(OC1)OC1C[C@H]3[C@@H]4CC[C@H]5CC(OC6OC(CO)C(OC7OC(CO)C(O)C(O)C7OC7OC(CO)C(O)C(O)C7O)C(O)C6O)CCC5(C)[C@H]4CCC3(C)C1[C@@H]2C (some centres undefined)	5.36 µM	2.92 µM	4.08 µM	10.4 µM	1.81 µM	2.15 µM	5.19 µM	4.1 µM	–	–	–	–	–	–	–	–
CN(C)CCCN1C(=S)N(CCCN(C)C)c2c3cc(O)ccc3nc3c([N+](=O)[O-])ccc1c23	29 µM	17.1 µM	5.47 µM	22.4 µM	16.5 µM	7 µM	9.93 µM	19 µM	–	–	–	–	–	–	–	–
CS(=O)(=O)OCCn1c(=O)n(CCOS(C)(=O)=O)c(=O)n(CCOS(C)(=O)=O)c1=O	> 100 µM	> 100 µM	> 100 µM	–	> 100 µM	> 100 µM	–	> 100 µM	–	–	–	–	–	–	–	–
O=P(c1ccccc1)(c1ccccc1)N1O[C@@H](c2ccccc2)C=C[C@H]1c1ccccc1	27.8 µM	33 µM	–	23.9 µM	26.3 µM	28.9 µM	24.5 µM	53.5 µM	–	–	–	–	–	–	–	–
COc1cc2c(cc1-c1c(C)noc1C)cc(C)c(=O)n2Cc1ccccn1	18.3 µM	13.2 µM	5.12 µM	> 100 µM	> 100 µM	> 100 µM	10.9 µM	> 100 µM	0.34 µM	0.983 µM	0.864 µM	0.797 µM	12.6 µM	1.2 µM	0.542 µM	1.57 µM
O=c1c2cc3c(cc2[nH]c2ncccc12)OCO3	> 10 µM	> 10 µM	> 10 µM	> 10 µM	> 10 µM	> 10 µM	> 10 µM	> 10 µM	–	–	–	–	–	–	–	–
COc1cc(C2CC(C)(Nc3ccccc3)Oc3cc4c(cc32)OCO4)cc(OC)c1OC (centres undefined)	> 100 µM	0.477 µM	> 100 µM	> 63.1 µM	6.13 µM	> 59.8 µM	10.7 µM	3.72 µM	–	–	–	–	–	–	–	–
